The values below come from PMC10683372 (Protein Science : A Publication of the Protein Society, 2023).

“And” between values parts separate entries of the source, which are not always exact repeats. Identical values can stand only once. Like-named read-outs stand apart in the source and are kept apart here. Bridge positions count the residues as written; N and C are the ends. Square brackets hold non-standard residues; d marks the D form. Ends that are not written are not given here. Peptide text beside a SMILES is read from it. Dip = N[C@H](C(=O)O)C(c1ccccc1)c1ccccc1; 1Nal = N[C@@H](Cc1cccc2ccccc12)C(=O)O; 2Nal = N[C@@H](Cc1ccc2ccccc2c1)C(=O)O; Cha = N[C@@H](CC1CCCCC1)C(=O)O; Nle = CCCC[C@H](N)C(=O)O

For one data set, the target named is T1, α‐thrombin (αT) (Homo sapiens, UniProt P00734).
T1 construct: goes from Thr1 of the A-chain to Glu295 of the B-chain
Nature of the data set: Tight-binding inhibition of αT amidolytic activity on chromogenic substrate S2238. It counts as biochemical.

The conditions of data set [1]: octanol/water; of the organic molecule corresponding to the amino acid side chain at position 3, not of the peptide; ref Sangster, 1989; cited from earlier work.
For data set [2], the target named is T2, αT (Homo sapiens, UniProt P00734, S568A).
Data set [3] concerns the target T3, recombinant wild type thrombin (αT) (Homo sapiens, UniProt P00734).
T3 construct: made in house
In words: Slow binding inhibition of thrombin amidolytic activity (S2238 progress curves). The conditions noted are these: slow binding inhibition model (Eq. 5, 6), 25°C, TBS pH 7.4. The format is biochemical.
Protocol: (§1) and added with the chromogenic substrate S2238 (100 mM). The values of vi/v0, were plotted as
(§2) a function of the inhibitor, as indicated, where v0 and vi are the steady state velocities in the
(§3) absence or presence of the inhibitor. The data points were interpolated with eq. 3, to yield Kiapp ,
(§4) which was then converted to KI using eq. 4. (B) Slow-binding inhibition. Assays were
(§5) performed by adding aT (50 pM) into a solution of S2238 (40 mM) in the presence of
(§6) Each progress curve was interpolated with
(§7) eq. 5 to obtain the corresponding observed kinetic constant, kobs.Interpolation of the data points
with eq. […]

The target in data set [4] is T4, α‐Thrombin mutant R93A (exosite II) (Homo sapiens, UniProt P00734, R452A).
T4 construct: made in house
In words: Slow binding inhibition of thrombin mutant R93A. It counts as biochemical. The conditions noted are these: slow binding inhibition model. The method, then:
Single X → Ala mutants of αT at either exosite I (Phe34Ala, Lys73Ala, Lys110Ala) and II (Arg93Ala, Arg101Ala) were produced and purified to homogeneity as earlier reported (Acquasaliente et al., [2016]; Pozzi et al., [2013]) (Figure S3) and incubated with haemadin to extract kinetic (k on and k off) and equilibrium (K I) constants of αT inhibition. […]
When slow binding inhibition assays were performed, αT (50 pM) was added to solutions of S2238 (50 μM) in the presence of increasing inhibitor (I) concentrations. From the time‐course release of pNA, [P]t, an observed kinetic constant (k obs) of substrate hydrolysis could be determined as a fitting parameter by interpolating each progress curve at increasing [I] to Equation (5) (Arcone et al., [2009]): (5) Pt=vs∙t+vo−vs/kobs∙1−e^−kobs∙t, where v 0 and v s is the initial or steady state velocity at each [I]. The association (k on) and dissociation (k off) rate constants of αT‐haemedin interaction were determined as fitting parameters by interpolating the data points of k obs as a function of [I] with Equation (6): (6) kobs=kon/1+S/Km∙I+koff. […]

The target in data set [5] is T2, αT. The arrangement: made in house. The conditions noted are these: cited from earlier work. The text has this:
Abstract Hirudin from Hirudo medicinalis is a bivalent α‐Thrombin (αT) inhibitor, targeting the enzyme active site and exosite‐I, and is currently used in anticoagulant therapy along with its simplified analogue hirulog. […] At variance with hirudin, haemadin targets exosite‐II and therefore (besides the free protease) it also blocks thr ... || The relevance of pharmacological applications of hirudin and its analogues has stimulated intensive research on hematophagous organisms, allowing identification of novel αT protein inhibitors, including the isolation of haemadin from the Indian leech Haemadipsa sylvestris (Strube et al., [1993]). […] However, haemadin binds to the fast form only 7‐fold more tightly than to the Na^+‐free (slow) form, with a coupling free energy ΔG c = ΔG b(fast) − ΔG b(slow) = −1.1 kcal/mol. For comparison, full‐length hirudin and its N‐terminal domain 1–47, bind more tightly to the fast form by ~30‐fold (ΔG c = −2.1 kcal/mol), compared to the slow form (De Filippis et al., [2005]; Di Cera et al., [1997]). The higher af ... || (+ 1 further places)

In data set [6] the target is recombinant wild‐type thrombin (Homo sapiens, UniProt P00734). Nature of the data set: biochemical.
Protocol: (§8) The reaction was started by addition of the chromogenic substrate S2238 (50 μM). Values of v i/v 0 are plotted as a function of inhibitor concentration, where v 0 and v i are the steady state velocities of S2238 hydrolysis in the absence or presence of inhibitor. Data points are the average of three independent measurements, with errors as ±SD. […] Data points in binding/inhibition measurements are the average of three independent measurements, with errors as ±SD.
(§9) Fluorescence measurements were performed at 25 ± 0.1°C in Tris buffered saline (TBS, 20 mM Tris–HCl, pH 7.4, 0.15 M NaCl, 0.1% PEG‐8000) in a 1 cm‐pathlength cuvette, using a Jasco FP‐6500 spectrofluorimeter, equipped with a Peltier model ETC‐273T temperature control system. […] Briefly, to a solution of αT (50 nM) were added, under gentle magnetic stirring, incremental volumes of ligand stock solutions. The samples were excited at 280 nm (5/5 excitation/emission slit) and the emission intensities were recorded at 334 nm, after subtracting the corresponding spectra of the ligands alone. Fluorescence data were corrected for sample dilution, which was always <2% at the end of the titration. […]
(§10) When the binding of PABA was studied, samples were excited at 336 nm and the emission of PABA was recorded at 376 nm, after baseline subtraction and correction for inner filter effect, as detailed elsewhere (Pontarollo et al., [2017]). […]
Data set [7] deals with thrombin R93A (exosite II) (Homo sapiens, UniProt P00734, R452A). Nature of the data set: biochemical.
Protocol: as §8, §9, §10
The nature of data set [8]: Thermal denaturation monitored by far‐UV CD. The format is physicochemical. The conditions noted are these: PBS pH 7.4, protein 0.69 mg/mL; CD at 233 nm (haemadin) or 220 nm (hirudin); heating 40°C·h^−1; inflection point, rough estimate.
Protocol: CD spectra were recorded on a Jasco J‐810 spectropolarimeter equipped with a Peltier model ETC‐273 T temperature control system (De Filippis, Polverino de Laureto, et al., [1996]). Far and Near UV‐CD spectra were recorded in a 0.1‐ or 1 cm‐pathlength quartz cell at a peptide/protein concentration of 0.47 or 1 mg/mL, respectively. All measurements were performed in phosphate buffered saline (PBS, 10 mM Na2HPO4 pH 7.4, 0.15 M NaCl) at 25 ± 0.1°C. The final spectra resulted from the average of four accumulations after base line subtraction. CD data were expressed as the mean residue ellipticity, [θ] = θ obs·MRW/(10·l·c), where θ obs is the observed signal in degrees, MRW is the mean residue weight, l is the cuvette pathlength in cm, and c is the protein concentration in g∙mL^−1. Stability measurements were carried out by recording the change of the CD signal in the far‐UV region as a function of sample temperature, using a 0.1‐cm pathlength cuvette and linear heating rate of 40°C∙h^−1. The reversibility of thermal unfolding was determined by measuring the recovery of the CD signal upon cooling to the starting temperature. The melting temperature (T m) was estimated from the first‐derivative of the thermal denaturation curve (De Filippis, Vassiliev, et al., [1996]; Frigerio et al., [1996]).
Data set [9] relates to αT. The conditions noted are these: at the Arg‐X bond; ref Maraganore et al., 1990; Lombardi et al., 1996, 1999; cited from earlier work. An excerpt: The fragment‐based approach is quite common in drug discovery and has been already exploited for the production of hirulogs, hirutonins, and hirunorms as simplified hirudin analogues (Lombardi et al., [1996]; Maraganore et al., [1990]; Szewczuk et al., [1993]). […] As a result, hirulog I (Angiomax®) is slowly ...

Protocol for α‐thrombin (αT): Enzyme inhibition assays were all performed at 25 ± 0.1°C in TBS (10 mM Tris–HCl pH 7.4, 0.1% PEG‐8000 w/v) in the presence of 0.15 M or 0.4 M NaCl, using a Jasco double‐beam V‐630 spectrophotometer equipped with a Peltier model PAC‐740 temperature control system (De Filippis et al., [1999]). Tight‐binding inhibition assays were performed by pre‐incubating αT (500 pM) for 30 min with increasing inhibitor concentrations [I]. The reaction started by the addition of the chromogenic substrate S2238 (20 μM) and the release of p‐nitroaniline (pNA) was continuously monitored at 405 nm, using a molar absorptivity of 9920 M^−1∙cm^−1.
as §1, §2, §3, §4, §5, §6, §7
with eq. 6 in the plot of kobs vs. [I], allowed us to estimate the values of kon and koff (see
Methods for details). All measurements were conducted in at 25 ± 0.1°C in TBS, pH 7.4. The
data points are the average of three independent measurements, with error bars as ±SD.

By Log P is commonly meant a log measure of how a compound divides between an organic and an aqueous phase. The compound `CCCC[C@H](NC(=O)CNC(=O)[C@H](Cc1ccccc1)NC(=O)[C@H](CCCNC(=N)N)NC(=O)[C@@H](N)[C@@H](C)CC)C(=O)NCC(=O)N[C@@H](CCCCN)C(=O)N[C@H](C(=O)N1CCC[C@H]1C(=O)NCC(=O)O)C(C)C` [Met5Nle] (H-IRFG[Nle]GKVPG-OH) registered a Ki at α‐thrombin (αT) of 1900 ± 100 nM. Also, in data set [1], the “Log P” value is on record as 2.73.
At α‐thrombin (αT), `CCCC[C@H](NC(=O)CNC(=O)[C@H](CC1CCCCC1)NC(=O)[C@H](CCCNC(=N)N)NC(=O)[C@@H](N)[C@@H](C)CC)C(=O)NCC(=O)N[C@@H](CCCCN)C(=O)N[C@H](C(=O)N1CCC[C@H]1C(=O)NCC(=O)O)C(C)C` [Phe3Cha] (H-IR[Cha]G[Nle]GKVPG-OH) came in with a Ki of 3800 ± 100 nM. Moreover, the “Log P” value in [1] is 3.88.
`CCCC[C@H](NC(=O)CNC(=O)[C@@H](NC(=O)[C@H](CCCNC(=N)N)NC(=O)[C@@H](N)[C@@H](C)CC)C(c1ccccc1)c1ccccc1)C(=O)NCC(=O)N[C@@H](CCCCN)C(=O)N[C@H](C(=O)N1CCC[C@H]1C(=O)NCC(=O)O)C(C)C` [Phe3DiP] (H-IR[Dip]G[Nle]GKVPG-OH) yielded a Ki on α‐thrombin (αT) of 7400 ± 400 nM. The “Log P” value in [1] is recorded as 4.80.
Compound `CCCC[C@H](NC(=O)CNC(=O)[C@H](Cc1ccc(O)cc1)NC(=O)[C@H](CCCNC(=N)N)NC(=O)[C@@H](N)[C@@H](C)CC)C(=O)NCC(=O)N[C@@H](CCCCN)C(=O)N[C@H](C(=O)N1CCC[C@H]1C(=O)NCC(=O)O)C(C)C` [Phe3Tyr] (H-IRYG[Nle]GKVPG-OH) returned a Ki on α‐thrombin (αT) of 6600 ± 400 nM. The log partition coefficient (Log P) in data set [1] is recorded as 1.97.
Turning to `CCCC[C@H](NC(=O)CNC(=O)[C@H](Cc1cccc2ccccc12)NC(=O)[C@H](CCCNC(=N)N)NC(=O)[C@@H](N)[C@@H](C)CC)C(=O)NCC(=O)N[C@@H](CCCCN)C(=O)N[C@H](C(=O)N1CCC[C@H]1C(=O)NCC(=O)O)C(C)C` [Phe3αNal] (H-IR[1Nal]G[Nle]GKVPG-OH), the “Log P” value in [1] is reported as 4.00.
On α‐thrombin (αT), `CCCC[C@H](NC(=O)CNC(=O)[C@H](Cc1ccc2ccccc2c1)NC(=O)[C@H](CCCNC(=N)N)NC(=O)[C@@H](N)[C@@H](C)CC)C(=O)NCC(=O)N[C@@H](CCCCN)C(=O)N[C@H](C(=O)N1CCC[C@H]1C(=O)NCC(=O)O)C(C)C` [Phe3βNal] (H-IR[2Nal]G[Nle]GKVPG-OH) returned a Ki of 190 ± 10 nM. The “Log P” value in [1] is on record as 4.00.
At α‐thrombin (αT), `CCCC[C@H](NC(=O)CNC(=O)[C@H](Cc1ccc2ccccc2c1)NC(=O)[C@H](CCCNC(=N)N)NC(=O)[C@@H](N)[C@@H](C)CC)C(=O)NCC(=O)N[C@@H](CCCCN)C(=O)N[C@H](C(=O)N1CCC[C@H]1C(=O)NCC(=O)NCC(=O)NCC(=O)N1CCC[C@H]1C(=O)N[C@@H](CCCCN)C(=O)N1CCC[C@H]1C(=O)N[C@@H](CO)C(=O)N[C@@H](CO)C(=O)N[C@@H](CCC(=O)O)C(=O)N[C@@H](Cc1ccccc1)C(=O)N[C@@H](CCC(=O)O)C(=O)N[C@@H](CCC(=O)O)C(=O)N[C@@H](Cc1ccccc1)C(=O)N[C@@H](CCC(=O)O)C(=O)N[C@H](C(=O)N[C@@H](CC(=O)O)C(=O)N[C@@H](CCC(=O)O)C(=O)N[C@@H](CCC(=O)O)C(=O)N[C@@H](CCC(=O)O)C(=O)N[C@@H](CCCCN)C(=O)O)[C@@H](C)CC)C(C)C` [haemanorm] (H-IR[2Nal]G[Nle]GKVPGGGPKPSSEFEEFEIDEEEK-OH) yielded a Ki of 0.8 nM. The “resistance to proteolysis by αT at the Arg2‐βNal bond” value at αT [2] is given as “fully resistant”.
Usually koff stands for a measure of how fast the partners let go of each other. Broadly, the kon is the second-order rate constant of association. As for “IRFGMGKVPCPDGEVGYTCDCGEKICLYGQSCNDGQCSGDPKPSSEFEEFEIDEEEK (disulfide 10-19, 21-32, 26-37) [haemadin]”, at α‐thrombin (αT), the Ki worked out at 0.0015 ± 5e-05 nM. For the same compound, the dissociation rate constant (koff) in data set [3] amounted to 4.83e-05 ± 2e-07 s⁻¹; in data set [4], 3.68e-05 ± 1e-07 s⁻¹. Moreover, the kon in [3] (αT 50 pM added to S2238 plus inhibitor) was determined as 2.253e+08 ± 200000 M⁻¹ s⁻¹; in data set [4] it was 2.998e+08 ± 300000 M⁻¹ s⁻¹.
Regarding “N‐terminal domain 1–40: N‐terminal domain 1–40 of haemadin (Richardson et al., 2002)”, the Ki with αT [5] (ref Richardson et al., 2002) was 5 nM.
Take “Phe3Trp: Phe3′ → Trp analogue of Haem(1–10)”: in the data set with α‐thrombin (αT) (25 ± 0.1°C, TBS, αT 250 pM incubated with peptide, S2238 50 μM, tight‐binding model (Eq. 3, 4), average of three independent measurements ± SD, read-out: K I), the Ki came to 2900 ± 300 nM.
A word on the Kd: it is the concentration at which binding is half-saturated. On to SEFEEFEIDEEEK [Haem(45–57)], for which the Kd amounted to 1600 nM in data set [6] and 1180 ± 90 nM in [7].
As to VSYTD [reference compound], the “inhibition of αT” value at α‐thrombin (αT) (not shown) is given as “lacks any significant inhibition”.
Consider hirudin, for which the “melting temperature (T m)” value in data set [8] was 63 ± 1 °C and ~ 63 °C. Besides, at αT [5] (fast vs slow form, ref De Filippis et al., 2005, Di Cera et al., 1997), the “coupling free energy ΔG c” value is -2.1 kcal/mol. On αT [5] (ref De Filippis et al., 2005, Di Cera et al., 1997), the “fold tighter binding to fast form than to slow form” value is listed as ~ 30 fold.
“hirulog I: synthetic bivalent analogue of hirudin”: the “cleavage by αT” value with αT [9] is “slowly cleaved”.
